Legend:
Homo sapiens [1] = species: Homo sapiens; experiment: Inhibition of Glutamate receptor ionotropic NMDA glycine,strychnine-sensitive site (unknown origin) at 10 uM relative to control
[2] = biological target: T1, 5-hydroxytryptamine receptor 2A (Homo sapiens, UniProt P28223); experiment: Inhibition of human 5HT-2A receptor at 10 uM relative to control
Homo sapiens [3] = species: Homo sapiens; experiment: Inhibition of GABA receptor chloride/TBOB site (unknown origin) at 10 uM relative to control
Homo sapiens [4] = species: Homo sapiens; experiment: Inhibition of human 5HT-6 receptor at 10 uM relative to control
[5] = biological target: Adenosine receptor A1 (Homo sapiens) (UniProt P30542); experiment: Inhibition of human adenosine receptor A1 expressed in CHO-K1 cells at 10 uM relative to control; type: cell-based
Homo sapiens [6] = species: Homo sapiens; experiment: Inhibition of Calcium-activated potassium channel channel (unknown origin); conditions: concentration not given here
Homo sapiens [7] = species: Homo sapiens; experiment: Inhibition of N-type calcium channel (unknown origin) at 10 uM relative to control
[8] = biological target: Cysteinyl leukotriene receptor 1 (Homo sapiens) (UniProt Q9Y271); experiment: Inhibition of human CYSLTR1 expressed in CHO-K1 cells at 10 uM relative to control; type: cell-based
Sequence of Cysteinyl leukotriene receptor 1 (Homo sapiens) (Q9Y271 whole entry): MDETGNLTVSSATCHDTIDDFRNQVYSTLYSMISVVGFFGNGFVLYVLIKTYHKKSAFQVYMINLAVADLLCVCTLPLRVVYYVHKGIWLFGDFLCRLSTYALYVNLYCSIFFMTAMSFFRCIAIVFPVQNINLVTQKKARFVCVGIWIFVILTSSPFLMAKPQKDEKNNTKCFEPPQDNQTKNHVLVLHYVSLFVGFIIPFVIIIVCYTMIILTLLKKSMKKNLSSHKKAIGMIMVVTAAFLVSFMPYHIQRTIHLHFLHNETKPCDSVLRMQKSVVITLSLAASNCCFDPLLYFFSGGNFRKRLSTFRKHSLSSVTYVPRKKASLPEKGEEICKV

Homo sapiens [9] = species: Homo sapiens; experiment: Inhibition of sodium channel site2 (unknown origin) at 10 uM relative to control
[10] = biological target: 5-hydroxytryptamine receptor 7 (Homo sapiens) (UniProt P34969); experiment: Inhibition of human 5HT-7 receptor at 10 uM relative to control
Homo sapiens [11] = species: Homo sapiens; experiment: Inhibition of human delta 2-type opioid receptor at 10 uM relative to control
[12] = biological target: Sodium-dependent dopamine transporter (Homo sapiens) (UniProt Q01959); experiment: Inhibition of human dopamine transporter expressed in CHO-K1 cells at 10 uM relative to control; type: cell-based
[13] = biological target: 5-hydroxytryptamine receptor 2C (Homo sapiens) (UniProt P28335); experiment: Inhibition of human 5HT-2C receptor at 10 uM relative to control
Homo sapiens [14] = species: Homo sapiens; experiment: Inhibition of human protein kinase A at 10 uM relative to control
L-type calcium channel = L-type calcium channel (Homo sapiens, UniProt O60840+Q01668+Q13698+Q13936); experiment: Inhibition of L-type calcium channel (unknown origin) at 10 uM relative to control; type: protein assay
Acetylcholinesterase = Acetylcholinesterase (Homo sapiens, UniProt P22303); experiment: Inhibition of acetylcholinesterase (unknown origin) at 10 uM relative to control
Sequence of Acetylcholinesterase (P22303 whole entry): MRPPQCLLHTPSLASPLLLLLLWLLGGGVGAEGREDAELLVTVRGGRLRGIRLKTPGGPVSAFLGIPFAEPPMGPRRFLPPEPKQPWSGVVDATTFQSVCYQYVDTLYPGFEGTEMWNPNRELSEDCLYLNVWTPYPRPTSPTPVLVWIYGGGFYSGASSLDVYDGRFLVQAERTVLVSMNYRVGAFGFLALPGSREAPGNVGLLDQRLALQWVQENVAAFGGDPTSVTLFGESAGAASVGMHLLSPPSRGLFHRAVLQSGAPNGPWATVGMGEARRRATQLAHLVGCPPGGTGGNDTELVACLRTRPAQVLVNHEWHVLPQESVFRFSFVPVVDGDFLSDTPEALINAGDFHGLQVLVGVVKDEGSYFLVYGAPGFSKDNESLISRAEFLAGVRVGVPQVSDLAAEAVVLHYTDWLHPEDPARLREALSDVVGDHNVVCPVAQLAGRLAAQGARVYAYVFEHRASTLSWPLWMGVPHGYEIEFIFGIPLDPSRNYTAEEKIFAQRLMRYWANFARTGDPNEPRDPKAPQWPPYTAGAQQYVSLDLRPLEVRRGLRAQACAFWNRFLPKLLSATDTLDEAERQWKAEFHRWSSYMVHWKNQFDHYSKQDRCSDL

[15] = biological target: D(1A) dopamine receptor (Homo sapiens) (UniProt P21728); experiment: Inhibition of human dopamine D1 receptor at 10 uM relative to control
Sequence of D(1A) dopamine receptor (Homo sapiens) (P21728 whole entry): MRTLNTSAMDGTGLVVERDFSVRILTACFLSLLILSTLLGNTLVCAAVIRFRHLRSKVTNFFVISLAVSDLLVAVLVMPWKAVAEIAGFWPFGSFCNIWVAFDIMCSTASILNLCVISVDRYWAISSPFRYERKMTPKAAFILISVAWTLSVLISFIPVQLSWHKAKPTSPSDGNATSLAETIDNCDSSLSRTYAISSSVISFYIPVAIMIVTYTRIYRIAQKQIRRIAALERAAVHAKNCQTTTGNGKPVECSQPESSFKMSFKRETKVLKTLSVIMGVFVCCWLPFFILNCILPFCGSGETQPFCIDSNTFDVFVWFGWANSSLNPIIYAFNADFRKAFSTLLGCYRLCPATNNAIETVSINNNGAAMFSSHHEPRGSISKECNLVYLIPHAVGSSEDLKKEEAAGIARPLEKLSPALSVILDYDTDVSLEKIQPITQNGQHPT

[16] = biological target: B2 bradykinin receptor (Homo sapiens) (UniProt P30411); experiment: Inhibition of BKR2 (unknown origin) at 10 uM relative to control
Sequence of B2 bradykinin receptor (Homo sapiens) (P30411 whole entry): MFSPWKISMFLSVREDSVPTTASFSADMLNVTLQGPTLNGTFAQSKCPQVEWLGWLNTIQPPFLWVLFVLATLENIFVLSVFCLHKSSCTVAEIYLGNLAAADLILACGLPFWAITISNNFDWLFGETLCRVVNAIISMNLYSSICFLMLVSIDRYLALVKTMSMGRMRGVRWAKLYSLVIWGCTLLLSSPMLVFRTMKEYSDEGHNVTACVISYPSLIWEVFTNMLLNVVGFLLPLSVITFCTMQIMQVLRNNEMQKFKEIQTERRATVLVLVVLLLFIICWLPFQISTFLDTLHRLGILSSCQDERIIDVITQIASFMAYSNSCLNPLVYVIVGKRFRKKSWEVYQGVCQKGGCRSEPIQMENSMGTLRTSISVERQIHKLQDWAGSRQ

[17] = biological target: Alpha-1B adrenergic receptor (Homo sapiens) (UniProt P35368); experiment: Inhibition of human adrenergic receptor alpha1B expressed in CHO-K1 cells at 10 uM relative to control; type: cell-based
Sequence of Alpha-1B adrenergic receptor (Homo sapiens) (P35368 whole entry): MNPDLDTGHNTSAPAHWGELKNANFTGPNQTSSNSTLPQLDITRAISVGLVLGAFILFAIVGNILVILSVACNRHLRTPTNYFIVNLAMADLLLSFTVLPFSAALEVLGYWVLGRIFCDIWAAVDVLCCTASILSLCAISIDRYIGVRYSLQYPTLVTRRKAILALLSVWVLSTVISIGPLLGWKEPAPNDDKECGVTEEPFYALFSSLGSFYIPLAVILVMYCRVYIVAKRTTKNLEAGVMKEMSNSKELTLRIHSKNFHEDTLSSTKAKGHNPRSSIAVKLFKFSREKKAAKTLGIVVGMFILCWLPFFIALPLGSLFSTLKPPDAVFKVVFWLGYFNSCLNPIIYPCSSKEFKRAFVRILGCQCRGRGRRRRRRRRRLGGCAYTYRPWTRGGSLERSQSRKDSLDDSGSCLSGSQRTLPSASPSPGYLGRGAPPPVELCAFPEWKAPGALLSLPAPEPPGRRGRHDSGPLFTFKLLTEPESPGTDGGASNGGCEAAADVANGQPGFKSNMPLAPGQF

[18] = biological target: 5-hydroxytryptamine receptor 4 (Homo sapiens) (UniProt Q13639); experiment: Inhibition of 5HT-4 (unknown origin) receptor at 10 uM relative to control
Homo sapiens [19] = species: Homo sapiens; experiment: Inhibition of GABA-A agonist site (unknown origin) at 10 uM relative to control
[20] = biological target: Sigma non-opioid intracellular receptor 1 (Homo sapiens) (UniProt Q99720); experiment: Inhibition of sigma 1 receptor (unknown origin) at 10 uM relative to control
Sequence of Sigma non-opioid intracellular receptor 1 (Homo sapiens) (Q99720 whole entry): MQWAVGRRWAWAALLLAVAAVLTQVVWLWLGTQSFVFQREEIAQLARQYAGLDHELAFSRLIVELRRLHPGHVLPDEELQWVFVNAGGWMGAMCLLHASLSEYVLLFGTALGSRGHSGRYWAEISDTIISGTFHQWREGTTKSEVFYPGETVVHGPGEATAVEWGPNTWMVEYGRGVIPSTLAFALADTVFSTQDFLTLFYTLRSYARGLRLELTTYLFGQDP

[21] = biological target: Substance-P receptor (Homo sapiens) (UniProt P25103); experiment: Inhibition of human NK1 at 10 uM relative to control
[22] = biological target: Alpha-1A adrenergic receptor (Homo sapiens) (UniProt P35348); experiment: Inhibition of human adrenergic receptor alpha1A expressed in CHO-K1 cells at 10 uM relative to control; type: cell-based
Sequence of Alpha-1A adrenergic receptor (Homo sapiens) (P35348 whole entry): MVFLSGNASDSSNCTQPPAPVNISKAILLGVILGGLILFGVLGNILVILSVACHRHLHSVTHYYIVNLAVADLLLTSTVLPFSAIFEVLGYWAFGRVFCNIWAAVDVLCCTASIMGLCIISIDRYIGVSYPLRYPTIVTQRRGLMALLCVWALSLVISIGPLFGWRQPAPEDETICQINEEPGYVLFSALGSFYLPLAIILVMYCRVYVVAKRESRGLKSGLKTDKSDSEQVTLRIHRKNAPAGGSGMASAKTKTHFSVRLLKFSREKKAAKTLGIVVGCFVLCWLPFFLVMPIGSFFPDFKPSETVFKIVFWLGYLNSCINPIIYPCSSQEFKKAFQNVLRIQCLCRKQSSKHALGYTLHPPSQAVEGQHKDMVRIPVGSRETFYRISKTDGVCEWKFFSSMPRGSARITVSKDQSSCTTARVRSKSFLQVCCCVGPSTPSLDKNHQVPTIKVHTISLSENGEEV

Homo sapiens [23] = species: Homo sapiens; experiment: Inhibition of Glutamate receptor ionotropic kainate site (unknown origin) at 10 uM relative to control
[24] = biological target: Muscarinic acetylcholine receptor M1 (Homo sapiens) (UniProt P11229); experiment: Inhibition of human muscarinic M1 receptor expressed in CHO-K1 cells at 10 uM relative to control; type: cell-based
Sequence of Muscarinic acetylcholine receptor M1 (Homo sapiens) (P11229 whole entry): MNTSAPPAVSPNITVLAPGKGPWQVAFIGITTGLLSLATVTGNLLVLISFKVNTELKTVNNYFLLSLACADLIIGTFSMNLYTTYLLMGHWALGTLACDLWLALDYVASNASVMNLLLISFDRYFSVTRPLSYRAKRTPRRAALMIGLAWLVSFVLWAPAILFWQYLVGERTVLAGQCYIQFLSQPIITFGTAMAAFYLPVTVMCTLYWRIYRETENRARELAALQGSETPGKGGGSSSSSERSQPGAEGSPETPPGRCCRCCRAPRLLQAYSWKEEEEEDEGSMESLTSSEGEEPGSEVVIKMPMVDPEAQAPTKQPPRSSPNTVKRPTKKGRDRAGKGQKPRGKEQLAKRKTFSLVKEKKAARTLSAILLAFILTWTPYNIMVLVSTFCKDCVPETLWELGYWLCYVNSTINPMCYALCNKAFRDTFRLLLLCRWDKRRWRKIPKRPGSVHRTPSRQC

[25] = biological target: Beta-1 adrenergic receptor (Homo sapiens) (UniProt P08588); experiment: Inhibition of human adrenergic receptor beta1 expressed in CHO-K1 cells at 10 uM relative to control; type: cell-based
Sequence of Beta-1 adrenergic receptor (Homo sapiens) (P08588 whole entry, looked up): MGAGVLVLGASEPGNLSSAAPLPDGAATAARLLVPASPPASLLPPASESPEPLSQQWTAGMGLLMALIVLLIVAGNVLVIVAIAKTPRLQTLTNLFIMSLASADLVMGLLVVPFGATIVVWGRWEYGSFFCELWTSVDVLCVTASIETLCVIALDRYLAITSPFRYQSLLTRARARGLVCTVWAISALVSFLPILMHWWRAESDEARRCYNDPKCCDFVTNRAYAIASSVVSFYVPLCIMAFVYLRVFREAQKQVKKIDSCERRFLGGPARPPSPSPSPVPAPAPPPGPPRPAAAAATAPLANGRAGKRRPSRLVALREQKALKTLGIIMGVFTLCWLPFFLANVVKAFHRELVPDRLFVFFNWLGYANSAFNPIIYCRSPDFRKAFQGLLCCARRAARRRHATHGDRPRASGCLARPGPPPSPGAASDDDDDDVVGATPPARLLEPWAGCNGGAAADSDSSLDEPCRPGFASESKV

[26] = biological target: T1, 5-hydroxytryptamine receptor 2A; experiment: Inhibition of human 5HT-2A receptor expressed in CHO-K1 cells at 10 uM relative to control; type: cell-based
[27] = biological target: Muscarinic acetylcholine receptor M2 (Homo sapiens) (UniProt P08172); experiment: Inhibition of human muscarinic M2 receptor expressed in CHO-K1 cells at 10 uM relative to control; type: cell-based
Sequence of Muscarinic acetylcholine receptor M2 (Homo sapiens) (P08172 whole entry): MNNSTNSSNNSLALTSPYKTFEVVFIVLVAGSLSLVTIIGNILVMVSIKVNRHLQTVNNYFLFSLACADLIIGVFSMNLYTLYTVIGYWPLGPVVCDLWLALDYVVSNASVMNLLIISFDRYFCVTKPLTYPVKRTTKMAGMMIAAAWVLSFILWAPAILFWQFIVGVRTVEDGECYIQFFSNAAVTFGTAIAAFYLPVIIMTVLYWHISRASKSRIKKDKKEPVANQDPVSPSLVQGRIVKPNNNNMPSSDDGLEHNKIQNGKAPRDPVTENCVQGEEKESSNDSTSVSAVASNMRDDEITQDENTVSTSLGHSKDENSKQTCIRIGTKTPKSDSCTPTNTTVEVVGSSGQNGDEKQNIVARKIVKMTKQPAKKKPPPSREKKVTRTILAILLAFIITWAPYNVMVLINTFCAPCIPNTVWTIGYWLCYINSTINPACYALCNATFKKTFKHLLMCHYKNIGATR

T1 sequence (P28223 whole entry): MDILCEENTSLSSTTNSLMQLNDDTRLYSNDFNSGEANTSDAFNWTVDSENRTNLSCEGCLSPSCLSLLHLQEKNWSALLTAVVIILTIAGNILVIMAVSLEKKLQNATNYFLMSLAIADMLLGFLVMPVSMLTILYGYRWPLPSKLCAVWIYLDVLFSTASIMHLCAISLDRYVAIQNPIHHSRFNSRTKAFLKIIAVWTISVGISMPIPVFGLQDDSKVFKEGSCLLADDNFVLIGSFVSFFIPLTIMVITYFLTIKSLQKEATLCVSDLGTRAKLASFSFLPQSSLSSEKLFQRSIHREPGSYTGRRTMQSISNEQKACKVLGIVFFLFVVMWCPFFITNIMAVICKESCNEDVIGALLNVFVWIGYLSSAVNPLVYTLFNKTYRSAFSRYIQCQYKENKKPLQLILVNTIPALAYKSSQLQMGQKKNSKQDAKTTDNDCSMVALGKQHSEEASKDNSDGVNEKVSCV

CN1C(=O)CC[C@H]1c1cccnc1 [COTININE]
< 50%: inhibition (Homo sapiens [1]) | inhibition [2] | inhibition (Homo sapiens [3]) | inhibition (Homo sapiens [4]) | inhibition [5] | inhibition (Homo sapiens [6]) | inhibition (Homo sapiens [7]) | inhibition [8] | inhibition (Homo sapiens [9]) | inhibition [10] | inhibition (Homo sapiens [11]) | inhibition [12] | inhibition [13] | inhibition (Homo sapiens [14]) | inhibition at 10 µM (L-type calcium channel) | inhibition (Acetylcholinesterase) | inhibition [15] | inhibition [16] | inhibition [17] | inhibition [18] | inhibition (Homo sapiens [19]) | inhibition [20] | inhibition [21] | inhibition [22] | inhibition (Homo sapiens [23]) | inhibition [24] | inhibition [25] | inhibition [26] | inhibition [27]

Reference: ChEMBL document CHEMBL4673260, “Pyridine alkaloids with activity in the central nervous system” (Bioorg Med Chem, 2020)
